Results as given in PubChem BioAssay AID1259407 (Chemical Carcinogenesis Research Information System (CCRIS), 2018).
Activity calls are given as the source filed them. No rule for the calls is given here.

System: CCRIS mutagenicity, Ames/micronucleus/aberration tests
Assay: CCRIS mutagenicity studies
[1] = Test System: AMES SALMONELLA TYPHIMURIUM, Strain/Indicator: TA98, Metabolic Activation: NONE, Method: STANDARD PLATE
[2] = Test System: AMES SALMONELLA TYPHIMURIUM, Strain/Indicator: TA102, Metabolic Activation: NONE, Method: STANDARD PLATE
[3] = Test System: AMES SALMONELLA TYPHIMURIUM, Strain/Indicator: TA1537, Metabolic Activation: NONE, Method: STANDARD PLATE
[4] = Test System: AMES SALMONELLA TYPHIMURIUM, Strain/Indicator: TA98, Metabolic Activation: NONE, Method: PREINCUBATION
[5] = Test System: AMES SALMONELLA TYPHIMURIUM, Strain/Indicator: TA98, Metabolic Activation: RAT, LIVER, S-9, AROCLOR 1254, Method: STANDARD PLATE
[6] = Test System: AMES SALMONELLA TYPHIMURIUM, Strain/Indicator: TA100, Metabolic Activation: NONE, Method: PREINCUBATION

`Cc1c2ccccc2c(CO)c2c1ccc1ccccc12` was tested, and the mutagenic call (Test System: CHINESE HAMSTER V-79, Strain/Indicator: V-79/6-THIOGUANINE, Metabolic Activation: CELL-MEDIATED, Method: STANDARD PLATE) was “active; positive” and the mutagenic call (Test System: CHINESE HAMSTER V-79, Strain/Indicator: V-79/OUABAIN, Metabolic Activation: CELL-MEDIATED, Method: STANDARD PLATE) was “active; positive”.
For `[Cd]`, the mutagenic call [1] was “inactive; negative”, the mutagenic call (Test System: AMES SALMONELLA TYPHIMURIUM, Strain/Indicator: TA98, Metabolic Activation: RAT, LIVER, S-9, PHENOBARBITAL, Method: STANDARD PLATE) was “inactive; negative” and the mutagenic call [2] was “active; positive”. The mutagenic call (Test System: AMES SALMONELLA TYPHIMURIUM, Strain/Indicator: TA102, Metabolic Activation: RAT, LIVER, S-9, PHENOBARBITAL, Method: STANDARD PLATE) was “inactive; negative”, the mutagenic call (Test System: AMES SALMONELLA TYPHIMURIUM, Strain/Indicator: TA1535, Metabolic Activation: NONE, Method: STANDARD PLATE) was “inactive; negative” and the mutagenic call (Test System: AMES SALMONELLA TYPHIMURIUM, Strain/Indicator: TA1535, Metabolic Activation: RAT, LIVER, S-9, PHENOBARBITAL, Method: STANDARD PLATE) was “inactive; negative”. The mutagenic call [3] was “inactive; negative” and the mutagenic call (Test System: AMES SALMONELLA TYPHIMURIUM, Strain/Indicator: TA1537, Metabolic Activation: RAT, LIVER, S-9, PHENOBARBITAL, Method: STANDARD PLATE) was “inactive; negative”.
In the case of `O=[N+]([O-])c1ccnc2ccccc12`, the mutagenic call (Test System: AMES SALMONELLA TYPHIMURIUM, Strain/Indicator: TA1538, Metabolic Activation: RAT, LIVER, S-9, KC500 OR PHENOBARBITAL, Method: LIQUID SUSPENSION) was “active; positive” and the mutagenic call (Test System: UDS RODENT PRIMARY CELLS, Strain/Indicator: THY INCORP (NON-S-PHASE), Metabolic Activation: NONE, Method: AUTORADIOGRAPHY) was “active; positive”.
With `Cc1c([N+](=O)[O-])c(C)c([N+](=O)[O-])c(C(C)(C)C)c1[N+](=O)[O-]` the mutagenic call [4] was “inactive; negative”, the mutagenic call [1] was “inactive; negative” and the mutagenic call (Test System: AMES SALMONELLA TYPHIMURIUM, Strain/Indicator: TA98, Metabolic Activation: RAT, LIVER, S-9, AROCLOR 1254, Method: PREINCUBATION) was “inactive; negative”. The mutagenic call [5] was “inactive; negative”, the mutagenic call [6] was “inactive; negative” and the mutagenic call (Test System: AMES SALMONELLA TYPHIMURIUM, Strain/Indicator: TA100, Metabolic Activation: NONE, Method: STANDARD PLATE) was “inactive; negative”. For the same molecule, the mutagenic call (Test System: AMES SALMONELLA TYPHIMURIUM, Strain/Indicator: TA100, Metabolic Activation: RAT, LIVER, S-9, AROCLOR 1254, Method: PREINCUBATION) was “inactive; negative”, the mutagenic call (Test System: AMES SALMONELLA TYPHIMURIUM, Strain/Indicator: TA100, Metabolic Activation: RAT, LIVER, S-9, AROCLOR 1254, Method: STANDARD PLATE) was “inactive; negative” and the mutagenic call (Test System: MOUSE LYMPHOMA, Strain/Indicator: L5178Y (TK+/TK-), Metabolic Activation: NONE, Method: SUSPENSION/PLATE) was “inactive; negative”. The mutagenic call (Test System: MOUSE LYMPHOMA, Strain/Indicator: L5178Y (TK+/TK-), Metabolic Activation: RAT, LIVER, S-9, AROCLOR 1242 AND 1254 (2:1), Method: SUSPENSION/PLATE) was “inactive; negative”, the mutagenic call (Test System: UDS RAT HEPATOCYTES, Strain/Indicator: THY INCORP, Metabolic Activation: NONE) was “inactive; negative” and the mutagenic call (Test System: UDS RAT HEPATOCYTES, Strain/Indicator: THY INCORP, Metabolic Activation: NONE, Method: IN VIVO-IN VITRO) was “inactive; negative”.
In the case of `CN(C)CCNC(=O)c1cccc2c1ncc1ccccc12`, the mutagenic call [3] was “active; positive”.
In the case of `C(=N\NC1=NCCN1)/c1c2ccccc2c(/C=N/NC2=NCCN2)c2ccccc12`, the mutagenic call (Test System: AMES SALMONELLA TYPHIMURIUM, Strain/Indicator: TA97A, Metabolic Activation: NONE, Method: STANDARD PLATE) was “active; positive”, the mutagenic call [1] was “active; positive” and the mutagenic call (Test System: AMES SALMONELLA TYPHIMURIUM, Strain/Indicator: TA1538, Metabolic Activation: NONE, Method: STANDARD PLATE) was “active; positive”.
For `CCC[CH2][Sn]([Cl])([CH2]CCC)[CH2]CCC`, the mutagenic call (Test System: AMES SALMONELLA TYPHIMURIUM, Strain/Indicator: TA98, Metabolic Activation: NONE, Method: SUSPENSION/PLATE) was “inactive; negative” and the mutagenic call (Test System: AMES SALMONELLA TYPHIMURIUM, Strain/Indicator: TA100, Metabolic Activation: NONE, Method: SUSPENSION/PLATE) was “active; positive”.
In the case of `CCOc1ccc(NC(=O)CC(C)O)cc1` (stereo not given), the mutagenic call (Test System: AMES SALMONELLA TYPHIMURIUM, Strain/Indicator: TA100, Metabolic Activation: HAMSTER, LIVER, S-9, KANECHLOR 400, Method: PREINCUBATION) was “active; positive”, the mutagenic call (Test System: AMES SALMONELLA TYPHIMURIUM, Strain/Indicator: TA100, Metabolic Activation: HAMSTER, LIVER, S-9, Method: PREINCUBATION) was “inactive; negative” and the mutagenic call (Test System: AMES SALMONELLA TYPHIMURIUM, Strain/Indicator: TA100, Metabolic Activation: RAT, LIVER, S-9, KANECHLOR 400, Method: PREINCUBATION) was “inactive; negative”. For the same molecule, the mutagenic call (Test System: AMES SALMONELLA TYPHIMURIUM, Strain/Indicator: TA100, Metabolic Activation: RAT, LIVER, S-9, Method: PREINCUBATION) was “inactive; negative”.
With `CC(C)NC(C)C` the mutagenic call (Test System: AMES SALMONELLA TYPHIMURIUM, Strain/Indicator: TA98, Metabolic Activation: HAMSTER, LIVER, S-9, AROCLOR 1254 (10%), Method: PREINCUBATION) was “inactive; negative”, the mutagenic call [4] was “inactive; negative” and the mutagenic call (Test System: AMES SALMONELLA TYPHIMURIUM, Strain/Indicator: TA98, Metabolic Activation: RAT, LIVER, S-9, AROCLOR 1254 (10%), Method: PREINCUBATION) was “inactive; negative”. For the same molecule, the mutagenic call (Test System: AMES SALMONELLA TYPHIMURIUM, Strain/Indicator: TA100, Metabolic Activation: HAMSTER, LIVER, S-9, AROCLOR 1254 (10%), Method: PREINCUBATION) was “inactive; negative”, the mutagenic call [6] was “inactive; negative” and the mutagenic call (Test System: AMES SALMONELLA TYPHIMURIUM, Strain/Indicator: TA100, Metabolic Activation: RAT, LIVER, S-9, AROCLOR 1254 (10%), Method: PREINCUBATION) was “inactive; negative”. For the same molecule, the mutagenic call (Test System: AMES SALMONELLA TYPHIMURIUM, Strain/Indicator: TA1535, Metabolic Activation: HAMSTER, LIVER, S-9, AROCLOR 1254 (10%), Method: PREINCUBATION) was “inactive; negative”, the mutagenic call (Test System: AMES SALMONELLA TYPHIMURIUM, Strain/Indicator: TA1535, Metabolic Activation: NONE, Method: PREINCUBATION) was “inactive; negative” and the mutagenic call (Test System: AMES SALMONELLA TYPHIMURIUM, Strain/Indicator: TA1535, Metabolic Activation: RAT, LIVER, S-9, AROCLOR 1254 (10%), Method: PREINCUBATION) was “inactive; negative”. The mutagenic call (Test System: AMES SALMONELLA TYPHIMURIUM, Strain/Indicator: TA1537, Metabolic Activation: HAMSTER, LIVER, S-9, AROCLOR 1254 (10%), Method: PREINCUBATION) was “inactive; negative”, the mutagenic call (Test System: AMES SALMONELLA TYPHIMURIUM, Strain/Indicator: TA1537, Metabolic Activation: NONE, Method: PREINCUBATION) was “inactive; negative” and the mutagenic call (Test System: AMES SALMONELLA TYPHIMURIUM, Strain/Indicator: TA1537, Metabolic Activation: RAT, LIVER, S-9, AROCLOR 1254 (10%), Method: PREINCUBATION) was “inactive; negative”.
With `NC1CCN(c2nc3c(cc2F)c(=O)c(C(=O)O)cn3-c2ccc(F)cc2F)C1` (stereo not given) the mutagenic call [2] was “active; positive”.
`CC1CNc2cc(O)c3ccc4ccccc4c3c21` (stereo not given) was tested, and the mutagenic call [5] was “active; positive” and the mutagenic call (Test System: AMES SALMONELLA TYPHIMURIUM, Strain/Indicator: TA98, Metabolic Activation: RAT, LIVER, S-9, AROCLOR, Method: STANDARD PLATE) was “active; positive”.
With `ONc1ccc(I)cc1` the mutagenic call (Test System: E. COLI, Strain/Indicator: WP2 UVRA, Metabolic Activation: NONE, Method: FLUCTUATION TEST) was “inactive; negative”.
